Measured values published in article PMC5418314, “First-in-human phase I study of SOR-C13, a TRPV6 calcium channel inhibitor, in patients with advanced solid tumors” (Investigational New Drugs, 2017).
Ends that are not written are not given here.

Experiments:
[1] = system: TRPV6; details: read-out: IC50, inhibition of TRPV6; cited from earlier work
Source text: SOR-C13 is a short segment (13-mer) from the C-terminus of a paralytic peptide soricidin (accession number P0C2P6) discovered in the saliva of the Northern Short-tailed shrew (Blarina brevicauda), abundant in eastern North America. While not paralytic themselves, C-series peptides blocked calcium uptake by ovarian cancer cells in in vitro studies. […] TRPV6 is predominantly found in non-excitable tissues wi ...

[2] = system: CA 19–9; test: CA 19–9 tumor biomarker levels in pancreatic cancer patients; type: in vivo, human
Description: (§1) Anti-tumor activity was evaluated by radiologic assessment of tumor size according to the New Response Evaluation Criteria in Solid Tumors (RECIST), Revised Guideline Version 1.1 [20] and changes in tumor-specific biomarker levels. The baseline radiologic assessment was performed ≤30 days prior to the first SOR-C13 dose. Tumor response was assessed after two cycles of treatment (between Days 15–21 of Cycle 2). For patients receiving additional cycles, tumor response was assessed after every 2 additional cycles, or earlier at the investigator’s discretion or as required by standard of care at the site.
For pharmacodynamic information changes of the plasma biomarkers ‘cleaved cytokeratin 18’, (ccK18) and TRPV6 mRNA levels, in response to treatment, were evaluated. Blood samples for the assessment of ccK18, TRPV6 mRNA or other tumor-specific biomarkers were collected within 24 h prior to the first infusion of SOR-C13, on Day 1 of Cycle 2, once between Days 15–21 of Cycle 2, during additional cycles, and at the Month 1 follow-up. We set a low basal level of ccK18 as 250 U/L as a cut-off point representing the 95th percentile median of healthy volunteers (Peviva M30 Apoptosense ELISA assay product literature).

[3] = system: advanced solid tumors of epithelial origin; test: Phase I anti-tumor activity (RECIST 1.1); type: in vivo, human
Description: as §1

[4] = system: breast cancer xenograft; test: xenograft model of breast cancer, tumor inhibition; type: in vivo
[5] = system: ovarian cancer xenograft; test: xenograft model of ovarian cancer, tumor inhibition; type: in vivo

## KEFLHPSKVDLPR [SOR-C13]
[1]
  IC50: 14 nM
[2]; pancreatic cancer patient treated at 6.25 mg/kg, after cycle 2
  decrease in CA 19–9: 29%
[2]; pancreatic cancer patient, 6.2 mg/kg, after cycle 4
  decrease in CA 19–9: 55%
[3]; 1.375 mg/kg, 90-min infusion
  patients with stable disease after two cycles: two out of the three patients
[3]; 12 of 22 evaluable patients, after two cycles, RECIST 1.1
  patients with stable disease: 54.5%
[3]; ovarian cancer (OVca) patients
  patients with stable disease after 2 cycles: two of the four
[3]; pancreatic cancer patient, 2.75 mg/kg, 90-min infusions
  duration of stable disease: four cycles
[3]; pancreatic cancer patient, 6.2 mg/kg, 90-min infusions
  duration of stable disease: over 10 cycles
[3]; pancreatic cancer patient, 6.2 mg/kg, 90-min infusions, after 4 cycles
  reduction from baseline in the sum of tumor diameters: 27%
[3]; patient with adenoid cystic carcinoma of the tongue, 4.13 mg/kg
  duration of stable disease (cycles received): 18 cycles
[4]
  inhibition of tumors: effective
[5]
  inhibition of tumors: effective
